The values that follow come from patent US7244738B2, “Arylamine-substituted quinazolinone compounds useful as alpha 1A/B adrenergic receptor antagonists” (Roche Palo Alto LLC, priority 2003, dated 2007).

Counter-ions that a name gives are not always drawn.

By melting point is commonly meant the temperature, or range, at which the solid turns liquid. For the compound `CNCCOc1ccc(CN(C)c2nc(=O)c3c(C)c(OC)c(OC)cc3[nH]2)cc1OC` [Example 29, 6,7-Dimethoxy-2-{[3-methoxy-4-(2-methylamino-ethoxy)-benzyl]-methyl-amino}-5-methyl-1H-quinazolin-4-one], the melting point lay in the range of 168.9 to 169.8 °C.
To `COc1cc2nc(N(C)Cc3cccc(C4CCN(C)CC4)c3)[nH]c(=O)c2c(C)c1OC` [Example H-3, 6,7-Dimethoxy-5-methyl-2-{methyl-[3-(1-methyl-piperidin-4-yl)-benzyl]-amino}-1H-quinazolin-4-one] belongs 155.7 to 158 °C; to `COc1cc2[nH]c(N(C)Cc3cccc(/N=C(\C)N(C)C)c3)nc(=O)c2cc1OC` [Example 70, N′-(3-{[(6,7-Dimethoxy-4-oxo-1,4-dihydro-quinazolin-2-yl)-methyl-amino]-methyl}-phenyl)-N,N-dimethyl-acetamidine], 221.8 to 223 °C.
To `COc1cc2[nH]c(N(C)Cc3cccc(N4CCN(C)C4=O)c3)nc(=O)c2c(C)c1OC` [Example 262, 6,7-Dimethoxy-5-methyl-2-{methyl-[3-(3-methyl-2-oxo-imidazolidin-1-yl)-benzyl]-amino}-1H-quinazolin-4-one] belongs 230 to 230.5 °C.
Compound `COc1cc2[nH]c(N(C)Cc3ccc4c(c3)CN(C)C4)nc(=O)c2c(C)c1OC` [Example 38, 6,7-Dimethoxy-5-methyl-2-[methyl-(2-methyl-2,3-dihydro-1H-isoindol-5-ylmethyl)-amino]-1H-quinazolin-4-one] registered a melting point of 214.9 to 224.8 °C.
`COc1ccc(CN(C)c2nc(=O)c3c(OC)c(OC)c(OC)cc3[nH]2)cc1OCC(CO)CO` (as salt: HCl) [Example 3, 2-{[3-(3-Hydroxy-2-hydroxymethyl-propoxy)-4-methoxy-benzyl]-methyl-amino}-5,6,7-trimethoxy-1H-quinazolin-4-one]: the melting point lay within 139.7 to 146.6 °C.
As to `COc1cc2nc(N(C)Cc3cccc(C4=NCCN4C)c3)[nH]c(=O)c2c(C)c1OC` [Example H-2, 6,7-Dimethoxy-5-methyl-2-{methyl-[3-(1-methyl-4,5-dihydro-1H-imidazol-2-yl)-benzyl]-amino}-1H-quinazolin-4-one], the melting point was in the range of 145 to 148 °C.
As for `COc1cc2[nH]c(N(C)Cc3cccc(Oc4ncccn4)c3)nc(=O)c2c(OC)c1OC` [Example F-16, 5,6,7-Trimethoxy-2-{methyl-[3-(pyrimidin-2-yloxy)-benzyl]-amino}-1H-quinazolin-4-one], the melting point fell in the range of 191 to 192.9 °C.
Next, `COc1cc2[nH]c(N(C)Cc3cccc(CNC4CC4)c3)nc(=O)c2c(C)c1OC` [Example 66, 2-[(3-Cyclopropylaminomethyl-benzyl)-methyl-amino]-6,7-dimethoxy-5-methyl-1H-quinazolin-4-one]: 144.5 to 147.6 °C.
Compound `COCCN1Cc2ccc(CN(C)c3nc(=O)c4c(OC)c(OC)c(OC)cc4[nH]3)cc2C1` [Example 18, 5,6,7-Trimethoxxy-2-{[2-(2-methoxy-ethyl)-2,3-dihydro-1H-isoindol-5-ylmethyl]-methyl-amino}-1H-quinazolin-4-one] returned a melting point of 133.3 to 136.6 °C.
Compound `COc1cc2[nH]c(N(C)Cc3cccc(OCCN(C)C)c3)nc(=O)c2c(C)c1OC` [Example 164, 2-{[3-(2-Dimethylamino-ethoxy)-benzyl]-methyl-amino}-6,7-dimethoxy-5-methyl-1H-quinazolin-4-one] displayed a melting point of 137.9 to 141.9 °C.
Regarding `CCNCc1cccc(CN(C)c2nc(=O)c3c(C)c(OC)c(OC)cc3[nH]2)c1` [Example 113, 2-[(3-Ethylaminomethyl-benzyl)-methyl-amino]-6,7-dimethoxy-5-methyl-1H-quinazolin-4-one], the melting point lay in the range of 158.2 to 158.9 °C.
Next, `COc1cc2[nH]c(N(C)Cc3cccc(CN4CCC(O)CC4)c3)nc(=O)c2c(C)c1OC` [Example 40, 2-{[3-(4-Hydroxy-piperidin-1-ylmethyl)-benzyl]-methyl-amino}-6,7-dimethoxy-5-methyl-1H-quinazolin-4-one]: 159.2 to 159.6 °C; `CCc1c(OC)c(OC)cc2[nH]c(N(C)Cc3cccc(N=C(C)N(C)C)c3)nc(=O)c12` [Example G-33, N′-(3-{[(5-Ethyl-6,7-dimethoxy-4-oxo-1,4-dihydro-quinazolin-2-yl)-methyl-amino]-methyl}-phenyl)-N,N-dimethyl-acetamidine]: 224.6 to 225.5 °C; `COc1cc2[nH]c(N(C)Cc3cccc(N)c3)nc(=O)c2c(C)c1OC` [Example B-1, 2-[(3-Amino-benzyl)-methyl-amino]-6,7-dimethoxy-5-methyl-1H-quinazolin-4-one]: 268 to 269.5 °C.
On to `COc1cc2[nH]c(N(C)Cc3cccc(N)c3)nc(=O)c2c(OC)c1OC` [Example 103, 2-[(3-Amino-benzyl)-methyl-amino]-5,6,7-trimethoxy-1H-quinazolin-4-one], for which the melting point lay in the range of 225 to 226.5 °C.
The compound `COCCNCc1cccc(CN(C)c2nc(=O)c3c(C)c(OC)c(OC)cc3[nH]2)c1` [Example 77] showed a melting point of 150 to 152.1 °C.
With `COc1cc2[nH]c(N(C)Cc3cccc(CN4CCC4)c3)nc(=O)c2c(OC)c1OC` [Example 47, 2-[(3-Azetidin-1-ylmethyl-benzyl)-methyl-amino]-5,6,7-trimethoxy-1H-quinazolin-4-one], the melting point fell in the range of 131.3 to 133.1 °C.
To `COc1cc2[nH]c(N(C)Cc3cccc(N=C4N(C)CCN4C)c3)nc(=O)c2c(C)c1OC` [Example 50, 2-{[3-(1,3-Dimethyl-imidazolidin-2-ylidenmeamino)-benzyl]-methyl-amino}-6,7-dimethoxy-5-methyl-1H-quinazoline-4-one] belongs 200.2 to 204.4 °C.
To `COc1cc2[nH]c(N(C)Cc3cccc(C(C)N(C)C(=O)N(C)C)c3)nc(=O)c2c(OC)c1OC` (stereo not shown) [Example 293] belongs 68 to 70 °C.
Next, `CNCc1ccc(CN(C)c2nc(=O)c3c(C)c(OC)c(OC)cc3[nH]2)cc1` (as salt: HCl) [Example 55, 6,7-Dimethoxy-5-methyl-2-[methyl-(4-methylaminomethyl-benzyl)-amino]-1H-quinazolin-4-one]: 264 to 268 °C.
Turning to `COc1cc2[nH]c(N(C)Cc3cccc(N=CN(C)C)c3)nc(=O)c2c(C)c1OC` [Example G-30, N′-(3-{[(6,7-Dimethoxy-5-methyl-4-oxo-1,4-dihydro-quinazolin-2-yl)-methyl-amino]-methyl}-phenyl)-N,N-dimethyl-formamidine], the melting point fell in the range of 185 to 186 °C.
`COc1cc2[nH]c(N(C)Cc3ccc(OCC(O)CO)cc3)nc(=O)c2c(C)c1OC` (stereo not shown) [Example 14, 2-{[4-(2,3-Dihydroxy-propoxy)-benzyl]-methyl-amino}-6,7-dimethoxy-5-methyl-1H-quinazolin-4-one] displayed a melting point of 199.7 to 201.9 °C.
To `COc1cc2[nH]c(N(C)Cc3cccc(CN4CCC(O)C4)c3)nc(=O)c2c(OC)c1OC` (stereo not shown) [Example 51, 2-{[3-(3-Hydroxy-pyrrolidin-1-ylmethyl)-benzyl]-methyl-amino}-5,6,7-trimethoxy-1H-quinazolin-4-one] belongs 174.3 to 176.4 °C; to `COc1cc2nc(N(C)Cc3cccc(N4CCCC4)c3)[nH]c(=O)c2cc1OC` (as salt: salt) [Example A-1, 6,7-Dimethoxy-2-[methyl-(3-pyrrolidin-1-yl-benzyl)-amino]-1H-quinazolin-4-one], 220 to 223 °C; to `COc1cc2[nH]c(N(C)Cc3cccc(NC(C)=N)c3)nc(=O)c2c(C)c1OC` [Example G-26, N-(3-{[(6,7-Dimethoxy-5-methyl-4-oxo-1,4-dihydro-quinazolin-2-yl)-methyl-amino]-methyl}-phenyl)-acetamidine], 155 to 158 °C.
As for `COc1cc2[nH]c(N(C)Cc3cccc(OCCO)c3)nc(=O)c2c(C)c1OC` [Example F-9, 2-{[3-(2-Hydroxy-ethoxy)-benzyl]-methyl-amino}-6,7-dimethoxy-5-methyl-1H-quinazolin-4-one], the melting point is 180.5 to 183.1 °C.
The compound `COCCOc1cccc(CN(C)c2nc(=O)c3c(C)c(OC)c(OC)cc3[nH]2)c1` [Example 160, 6,7-Dimethoxy-2-{[3-(2-methoxy-ethoxy)-benzyl]-methyl-amino}-5-methyl-1H-quinazolin-4-one] displayed a melting point of 176.6 to 177.9 °C.
To `COc1cc2[nH]c(N(C)Cc3cccc(NCCO)c3)nc(=O)c2c(OC)c1OC` [Example 182, 2-{[3-(2-Hydroxy-ethylamino)-benzyl]-methyl-amino}-5,6,7-trimethoxy-1H-quinazolin-4-one] belongs 60.5 to 61.5 °C; to `COCCNS(=O)(=O)c1cccc(CN(C)c2nc(=O)c3c(OC)c(OC)c(OC)cc3[nH]2)c1` [Example 132, N-(2-Methoxy-ethyl)-3-{[methyl-(5,6,7-trimethoxy-4-oxo-1,4-dihydro-quinazolin-2-yl)-amino]-methyl}-benzenesulfonamide], 176.9 to 179.1 °C.
`COc1cc2[nH]c(N(C)Cc3cccc(CN4CCC(O)C4)c3)nc(=O)c2c(C)c1OC` (stereo not shown) [Example 49, 2-{[3-(3-Hydroxy-pyrrolidin-1-ylmethyl)-benzyl]-methyl-amino}-6,7-dimethoxy-5-methyl-1H-quinazolin-4-one] registered a melting point of 148 to 149.8 °C.
Next, `COc1cc2[nH]c(N(C)Cc3cccc(Oc4ncccn4)c3)nc(=O)c2c(C)c1OC` (as salt: salt) [Example F-3, 6,7-Dimethoxy-5-methyl-2-{methyl-[3-(pyrimidin-2-yloxy)-benzyl]-amino}-1H-quinazolin-4-one]: 224 to 227.8 °C.
To `COCCN(C)C(C)c1cccc(CN(C)c2nc(=O)c3c(C)c(OC)c(OC)cc3[nH]2)c1` (stereo not shown) [Example 54, 6,7-Dimedthoxy-2-[(3-{1-[(2-methoxy-ethyl)-methyl-amino]-ethyl}-benzyl)-methyl-amino]-5-methyl-1H-quinazolin-4-one] belongs 114.5 to 116.9 °C; to `COc1cc2[nH]c(N(C)Cc3cccc(CC#N)c3)nc(=O)c2c(OC)c1OC` [Example 107, (3-{[Methyl-(5,6,7-trimethoxy-4-oxo-1,4-dihydro-quinazloin-2-yl)-amino]-methyl}-phenyl)-acetonitrile], 149.5 to 153.3 °C.
